# Assays:
# T2-A24 cells = experiment: 51Cr release assay of C27 against peptide-pulsed T2-A24; assay type: cell-based; settings: effector to target ratio of 1
# PC9 = experiment: Cold target inhibition assay; assay type: cell-based; settings: peptide 1×10^−5 M pulsed T2-A24 cells
# Procedure: Cold target inhibition assay was carried out according to the method of Arai et al. (Blood, 97:2903-2907, 2001). […] After several washings, the resultants were incubated with 2×10^4 effector cells for 1 hour to yield a ratio of peptide-pulsed T2-A24 cells to target cells of 40:1, 20:1, 10:1, and 5:1. 2×10^3 51Cr-labeled PC9 cell lines were added to each well. The cytotoxicity was determined as described in the item 7) regarding CTL assays.
# HLA-A2402 = HLA-A2402 (Homo sapiens, UniProt P04439, D101N/D140Y/D185E/E176V/E190D/F33S/G103R/G107R/I119L/I121M/I306V/K335N/L105A/L180Q/L300P/N151K/N90K/Q86E/Q94H/R106L/R138H/R89G/T104I/T345S/V100E/W191G/Y123F); experiment: MHC stabilization assay using T2-A24 cells; assay type: binding; settings: ranking among the seven peptides
# [1] = tested on: CD8 positive T-cells of HLA-A2402 positive healthy donors; experiment: ELISPOT assay of IFN-γ; assay type: cell-based, human; settings: T-cell lines stimulated by peptide-pulsed dendritic cells, incubated with peptide-pulsed T2-A24 cells
# Procedure: Subsequently, self-derived dendritic cells were pulsed at room temperature for 2 to 4 hours with each of the Ep-CAM synthesis peptides with a concentration of 10 μM in an AIM-V culture medium (product of Gibco) containing 5×10^−5 M β-mercaptoethanol, followed by irradiation (33Gy).
# The dendritic cells (1×10^5 cells) were then cocultivated in a culture tube with CD8 positive T lymphocytes (1×10^6 lymphocytes) in a RPMI1640 culture medium containing 10% human blood serum, 25 ng/mL recombinant human IL-7 (product of R&D systems company), and 5 ng/mL recombinant human IL-12 (product of R&D systems company).
# After seven days of cultivation, the cells were stimulated by adding 1×10^5 peptide-pulsed self-derived dendritic cells prepared as above. After a further seven days of cultivation, the cells were stimulated 3 times by the same procedure. After each restimulation, human recombinant IL-2 (product of Takeda Pharmaceutical Company, Ltd.) was added to give a final concentration of 20 units/ml. Actively proliferating cells were divided into 2 or 3 tubes as necessary, and cultured in a fresh culture medium containing 20 units/ml of IL-2. […]
# The plate was incubated at 37° C. for 20 hours in a 5% CO2 incubator, and thoroughly washed with PBS containing 0.05% Tween 20. […] The number of diffused large spots was counted under the microscope.
compound,measurement,setting,value
CC[C@H](C)[C@H](NC(=O)[C@H](Cc1ccccc1)NC(=O)[C@H](CCCCN)NC(=O)[C@@H]1CCCN1C(=O)[C@H](CC(=O)O)NC(=O)[C@H](CC(C)C)NC(=O)[C@H](CCC(N)=O)NC(=O)[C@H](Cc1ccc(O)cc1)NC(=O)[C@@H](N)CCCNC(=N)N)C(=O)O [Ep173],peptide concentration at which C27 demonstrated cytotoxicity against pulsed T2-A24 cells,T2-A24 cells,100 pM
same,inhibition of C27-mediated cytotoxicity against PC9 by peptide-pulsed T2-A24 cold target cells,PC9,specifically inhibited
"EMGEMHREL (… PROTEIN EPITOPE PEPTIDE …) [Ep304, Ep-CAM peptide, amino acid positions 304-312]",affinity for the HLA-A2402,HLA-A2402,lowest affinity
"RYLRDQQLL (SYTHETIC PROTEIN EPITOPE PEPTIDE …) [ENV584, human immunodeficiency virus-1 (HIV-1) envelope peptide, residues 584-592, control, reference compound]",production of IFN-γ spots,[1],not observed
"YYVDEKAPEF (… PROTEIN EPITOPE PEPTIDE …) [Ep250, Ep-CAM peptide, amino acid positions 250-259]",production of IFN-γ spots,[1],specifically produced IFN-γ spots

# Reference: US7846651B2, “Epitope/peptide recognized by HLA-A2402-restricted Ep-CAM-specific CTL and use of the same” (Aichi Prefecture, priority 2004, dated 2010)
